# Laboratory results as given in ChEMBL document CHEMBL1153106, “Thyroid receptor agonists for the treatment of androgenetic alopecia” (Bioorg Med Chem Lett, 2010).
# The source made the active and inactive calls. No cut-off for these calls is given here.
# Tests used:
# [1] = molecular target: T1, Thyroid hormone receptor beta (Homo sapiens, UniProt P10828); test: Binding affinity to thyroid receptor beta
# T1 sequence (P10828 whole entry): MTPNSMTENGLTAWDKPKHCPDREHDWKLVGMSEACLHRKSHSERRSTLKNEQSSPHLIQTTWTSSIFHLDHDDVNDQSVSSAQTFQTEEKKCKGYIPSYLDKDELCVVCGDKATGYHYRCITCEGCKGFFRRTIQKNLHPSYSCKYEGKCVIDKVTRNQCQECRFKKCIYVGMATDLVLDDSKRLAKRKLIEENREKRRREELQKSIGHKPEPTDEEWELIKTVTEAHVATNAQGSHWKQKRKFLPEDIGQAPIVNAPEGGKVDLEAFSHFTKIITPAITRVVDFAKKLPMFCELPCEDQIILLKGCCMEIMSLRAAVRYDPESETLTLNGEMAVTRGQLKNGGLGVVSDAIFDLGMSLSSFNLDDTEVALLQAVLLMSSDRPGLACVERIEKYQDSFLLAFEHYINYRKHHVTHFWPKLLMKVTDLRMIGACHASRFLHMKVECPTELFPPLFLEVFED
# [2] = molecular target: T2, Thyroid hormone receptor alpha (Homo sapiens, UniProt P10827); test: Binding affinity to thyroid receptor alpha
# T2 sequence (P10827 whole entry): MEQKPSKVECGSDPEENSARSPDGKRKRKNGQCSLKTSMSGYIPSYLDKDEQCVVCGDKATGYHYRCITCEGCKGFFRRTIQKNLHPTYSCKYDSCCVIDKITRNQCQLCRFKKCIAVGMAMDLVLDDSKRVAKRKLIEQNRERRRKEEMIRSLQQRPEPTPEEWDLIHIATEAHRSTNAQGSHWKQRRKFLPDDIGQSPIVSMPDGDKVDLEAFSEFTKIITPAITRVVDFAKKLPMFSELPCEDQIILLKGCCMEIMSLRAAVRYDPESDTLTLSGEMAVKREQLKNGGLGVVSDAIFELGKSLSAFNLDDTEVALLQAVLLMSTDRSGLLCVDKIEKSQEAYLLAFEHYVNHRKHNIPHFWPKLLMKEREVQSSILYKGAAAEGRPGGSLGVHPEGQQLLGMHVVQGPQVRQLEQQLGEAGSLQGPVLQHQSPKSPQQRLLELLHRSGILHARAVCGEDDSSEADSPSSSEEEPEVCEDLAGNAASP
# Mus musculus [3] = test: Hair growth stimulatory activity in C3H/HeN mouse treated 5 days a week topically to shaved lower back twice daily for 4 weeks; assay type: functional
# Macaca arctoides = species: Macaca arctoides; test: Hair growth stimulatory activity in bal stump-tailed monkey model; assay type: functional
# Thyroid hormone receptor = molecular target: T3, Thyroid hormone receptor (Homo sapiens, UniProt P10827+P10828); test: Binding affinity to thyroid hormone receptor in human HepG2 cells
# T3 sequence (P10827 whole entry): T2 sequence (P10827 whole entry)
# T3 sequence (P10828 whole entry): T1 sequence (P10828 whole entry)
# Mus musculus [4] = test: Ratio of drug to minoxidil MED for hair growth stimulatory activity in female C3H/HeN mouse at 1 mg/mL, treated topically to shaved lower back as single dose; assay type: functional, organism-based
# Mus musculus [5] = test: Ratio of drug to minoxidil MED for hair growth stimulatory activity in female C3H/HeN mouse at 0.1 mg/mL, treated topically to shaved lower back as single dose; assay type: functional, organism-based
# [6] = Metabolic stability in rat liver microsomes; assay type: ADME, Microsome
# [7] = Half life in rat hepatocytes; assay type: ADME, cell-based, Liver, Hepatocyte
# [8] = Clearance in rat blood; assay type: ADME, organism-based
# [9] = Intrinsic clearance in rat; assay type: ADME, organism-based; conditions: not recorded
# [10] = Metabolic stability in […] human liver microsomes; assay type: ADME, Microsome
# [11] = Half life in human hepatocytes; assay type: ADME, cell-based, Liver, Hepatocyte
# [12] = Clearance in human blood; assay type: ADME, organism-based
# [13] = Intrinsic clearance in human; assay type: ADME, organism-based; conditions: not recorded
# [14] = Plasma clearance in rat at 0.5 mg/kg, iv; assay type: ADME, organism-based; parameters: dose 0.5 mg/kg, route intravenous
# Rattus norvegicus = test: Apparent volume of distribution at steady state in rat at 0.5 mg/kg, iv; assay type: ADME, organism-based; parameters: dose 0.5 mg/kg, route intravenous; conditions: in vivo
# [15] = Terminal half life in rat at 0.5 mg/kg, iv; assay type: ADME, organism-based; parameters: dose 0.5 mg/kg, route intravenous; conditions: in vivo, read-out: beta t1/2 (converted)
# Zone of skin [16] = test: Effect on transepidermal penetration in human cadaver skin assessed as maximal penetration rate after 28 hrs using Franz diffusion chamber; assay type: functional
# Zone of skin [17] = test: Effect on transepidermal penetration in human cadaver skin assessed as total penetration after 40 hrs using Franz diffusion chamber; assay type: functional
# Zone of skin [18] = test: Effect on transepidermal penetration in human cadaver skin assessed as drug distributed to dermis after 40 hrs using Franz diffusion chamber; assay type: functional
# Zone of skin [19] = test: Effect on transepidermal penetration in human cadaver skin assessed as drug distributed to epidermis after 40 hrs using Franz diffusion chamber; assay type: functional
# NIH3T3 = test: Phototoxicity in mouse 3T3 cells by neutral red uptake assay; assay type: cell-based
# [20] = Drug level in bald stump-tailed monkey model after 2 months; assay type: ADME, organism-based; conditions: macaca arctoides, in vivo; read-out: Drug uptake
# [21] = Drug level in bald stump-tailed monkey model after 3 months; assay type: ADME, organism-based; conditions: macaca arctoides, in vivo; read-out: Drug uptake
# [22] = Drug level in bald stump-tailed monkey model after 4 months; assay type: ADME, organism-based; conditions: macaca arctoides, in vivo; read-out: Drug uptake
# [23] = Toxicity in bald stump-tailed monkey skin after 4 months; assay type: tissue-based, Zone of skin; conditions: macaca arctoides, in vivo, 2922 h
smiles,measurement,setting,value
Cc1cc(NC(=O)CC(=O)O)cc(Cl)c1Oc1ccc(O)c(S(=O)(=O)CC2CCC2)c1,Ki,[1],0.5 nM
same,Ki,[2],2.1 nM
same,MED,Mus musculus [3],0.1%
O=C(c1cc(Oc2c(Cl)cc(-n3ncc(=O)[nH]c3=O)cc2Cl)ccc1O)N1CCCCC1,Ki,[1],1 nM
same,Ki,[2],20 nM
same,MED,Mus musculus [3],0.1%
Cc1cc(NC(=O)C(=O)O)cc(C)c1Oc1ccc(O)c2c1CCC2,Ki,[1],0.5 nM
same,Ki,[2],0.7 nM
same,MED,Mus musculus [3],1%
O=C(c1cc(Oc2c(Cl)cc(-n3ncc(=O)[nH]c3=O)cc2Cl)ccc1O)N1CCc2ccccc2C1,Ki,[1],2 nM
same,Ki,[2],126 nM
same,MED,Mus musculus [3],0.1%
O=c1cnn(-c2cc(Cl)c(Oc3ccc(O)c(Cc4ccc(F)cc4)c3)c(Cl)c2)c(=O)[nH]1,Ki,[1],0.51 nM
same,Ki,[2],8 nM
same,MED,Mus musculus [3],0.01%
Nc1cc(N2CCCCC2)nc(N)[n+]1[O-] [MINOXIDIL],MED,Mus musculus [3],2.5%
same,MED,Macaca arctoides,2%
Cc1cc(-n2ncc(=O)[nH]c2=O)cc(C)c1Oc1ccc(O)c(Cc2ccc(F)cc2)c1,Ki,[1],0.4 nM
same,Ki,[2],3 nM
same,MED,Mus musculus [3],0.003%
same,EC50,Thyroid hormone receptor,0.5 nM
same,Activity,Mus musculus [4],Active
same,Activity,Mus musculus [5],Active
same,half-life,[6],40 min
same,half-life,[7],45 min
same,clearance,[8],51 mL/min/kg
same,CLint scaled,[9],149 mL/min/kg
same,half-life,[10],39 min
same,half-life,[11],119 min
same,clearance,[12],15 mL/min/kg
same,CLint scaled,[13],29 mL/min/kg
same,clearance,[14],40 mL/min/kg
same,Vdss(app),Rattus norvegicus,4.88 L/kg
same,half-life,[15],164 min
same,Activity,Zone of skin [16],0.14 microg/cm2/h
same,Activity,Zone of skin [17],6.17%
same,Activity,Zone of skin [18],0.58%
same,Activity,Zone of skin [19],9.88%
same,Activity,NIH3T3,Non-toxic
same,MED,Macaca arctoides,0.1%
same,concentration at 1461 h,[20],< 2 ng/mL
same,concentration at 2191.5 h,[21],< 1 ng/mL
same,concentration at 2922 h,[22],< 1 ng/mL
same,Activity,[23],Non-toxic
